Reference: US20220401458A1 (Glia, LLC, priority 2019, published 2022)

Columns and labels:
[1] = tested on: corneal mechanical thresholds; experiment: Corneal mechanical threshold in rat (surrogate for effect on dry eye); format: in vivo; conditions: p<0.01 (FIG. 5)
Procedure: In the same animal model as used in Example 1, the corneal mechanical thresholds were determined as a surrogate for effect on dry eye.

[2] = tested on: Parkinson's disease; experiment: Case study Patient: Parkinson's disease symptoms during topical testosterone gel to forehead; format: in vivo, human
Source text: They were diagnosed with Parkinson's in May 2016, confirmed October 2016 and April 2017 by independent DAT scans. Symptoms were bradykinesia of the legs, rigidity/stiffness, postural instability, specifically trouble with balance and falling as well as trouble with moving and walking, with peripheral neuropathy on both feet. Patient experienced no particular tremors. They also experienced chronic and increasing fatigue and loss of energy, as well as chronic head colds that would last about one week at a time every 6 weeks.
(§1) In February 2019, symptoms continued and progressed. Patient was prescribed carbidopa/levodopa 25 mg/100 mg TID.

[3] = tested on: luteinizing hormone (LH); experiment: Serum luteinizing hormone levels by competitive ELISA after topical administration to rat forehead; format: in vivo, male Sprague-Dawley rats; conditions: about 0.2% testosterone gel on forehead twice daily for 14 days; not statistically significant
Procedure: (§2) Hormone Assessment: Blood was collected, stored at 4° C. overnight and spun down to collect serum. Serum was analyzed for total testosterone levels (T) and luteinizing hormone (LH) levels by competitive ELISA using commercially available kits (Enzo Life Sciences). […] All samples were run in duplicate. For assessing LH, serum was diluted 1:2 and, due to high variance, samples were run in quadruplet. Obvious outlying values were omitted and data were averaged for the final analysis.

[4] = Case study Patient: blood testosterone levels during topical testosterone gel to forehead; format: in vivo, human; conditions: for concentration at 2 months / concentration at 10 months: human, blood, topical, 0.14 mg
Procedure: as §1
Patient was maintained at these levels.

[5] = Serum total testosterone levels by competitive ELISA after twice daily topical administration to rat forehead; format: in vivo, male Sprague-Dawley rats; conditions: about 0.2% testosterone gel on shaved forehead twice daily for 14 days; serum 30 min after final application; one-way t-test p 0.08 (FIG. 1)
Procedure: as §2

C[C@]12CC[C@H]3[C@@H](CCC4=CC(=O)CC[C@@]43C)[C@@H]1CC[C@@H]2O [testosterone, 17β-hydroxyandrost-4-en-3-one]
corneal mechanical threshold pressure compared with control ([1]; 60 minutes after administration to shaved head): significantly higher | corneal mechanical threshold pressure compared with control ([1]; 120 minutes after administration to shaved head): significantly higher | increase of repetitions in exercises ([2]; 20-month period on gel, reported by physical trainer): about 25% | cognitive decline ([2]; April 2020): no cognitive decline | sex drive compared to before start of testosterone treatment ([2]; April 2020): increased sex drive | strength in knees and rest of body ([2]; April 2020): increased strength | energy / ability to exercise ([2]; after starting the testosterone gel 0.14 mg once daily to forehead): more energetic and was able to exercise | progression of Parkinson's disease ([2]; neurologist's conclusion June 2020, comparison with peer group): had not progressed | increase in serum luteinizing hormone levels [3]: 9% | bioavailable testosterone ([4]; 0.2% w/w gel once daily to forehead, 10 months): 2.0 ng/dL | concentration at 2 months ([4]; Free testosterone, 0.2% w/w gel once daily to forehead): 0.08 pg/mL | concentration at 10 months ([4]; Free testosterone, 0.2% w/w gel once daily to forehead, 10 months): 1 pg/mL | concentration at 2 months ([4]; Total testosterone, 0.14 mg in 0.07 g gel (0.2% w/w) once daily to forehead): 140 pg/mL | concentration at 10 months ([4]; Total testosterone, 0.2% w/w gel once daily to forehead, 10 months): 210 pg/mL | increase in testosterone levels in the treated rats compared to controls [5]: 42%
